Experimental data from patent US20210315969A1, “GLYCOPROTEINS HAVING LIPID MOBILIZING PROPERTIES AND THERAPEUTIC USES THEREOF” (Aston University, priority 2008, published 2021).

Legend:
adipocytes = assay: Expression of phospho HSL / HSL in adipocytes incubated 3 h with ZAG or isoprenaline; assay type: cell-based, mice
epididymal adipocytes = assay: Lipolytic assay (glycerol release) in isolated mouse adipocytes; assay type: cell-based, mice; details: any adipocyte group
Method: Cell Culture and Purification of ZAG—Single-cell suspensions of white adipocytes were prepared from minced adipose deposits by incubation at 37° C. for […] in Krebs-Ringer biocarbonate buffer containing 1.5 ingml^−1 collagenase, and 4% bovine serum albumin under an atmosphere of 95% oxygen:5% CO2 as previously described. For time-course studies adipocytes were suspended in DMEM containing 10% fetal calf serum at a concentration of 10^5 cells ml^−1 and maintained under an atmosphere of 10% CO2 in air at 37° C. Human 293 cells transfected with a plasmid containing human ZAG were seeded at a concentration of 10^5 cells ml^−1 in FreeStyle medium and maintained under an atmosphere of 5% CO2 in air at 37° C. Maximal protein levels (16 μgml^−1) were obtained after 14 days of culture. […]
Lipolytic Assay—Samples to be assayed were incubated with 10^5 to 2×10^5 adipocytes for 2 h in 1 ml Krebs-Ringer bicarbonate buffer, pH 7.2. The concentration of glycerol released was determined enzymatically by the method of Wieland (Wieland, O. Glycerol UV method. In Methods of Enzymatic Analysis (ed. Bergmeyer, H. U.) (Academic Press, London, UK, pp 1404-1409, 1974)). Control samples containing adipocytes alone were analysed to determine the spontaneous glycerol release. Activity was expressed as nmol glycerol released/10^5 adipocytes/2 h.

murine myotubes = assay: Protein degradation and synthesis in myotubes subjected to high glucose; assay type: cell-based
Method: FIGS. 18A and 18B is a graphical diagram showing phenylalanine release (FIG. 18A) and protein synthesis (FIG. 18B) in C2Cl2 myotubes treated with and without ZAG for 4 h in the presence of various concentrations of glucose. Statistically significant c, P<0.001 from control; f, P<0.001 from glucose alone.
Statistically significant b, P<0.01 and c, P<0.001 from control; e, P<0.05 and f, P<0.001 from glucose alone.
Statistically significant b, P<0.01 and c, P<0.001 from control; e, P<0.05 and f, P<:0.001 from glucose alone; I, P<0.001 from glucose+SR.
This utilizes murine myotubes subjected. to high concentrations of glucose (10 or 25 mM).

CC(C)NCC(O)c1ccc(O)c(O)c1 (stereo not drawn) [isoprenaline]
expression of phospho HSL in adipocytes (adipocytes; 3 h, isoprenaline 10 μM or ZAG 0.46 μM): not | extent of stimulation of lipolysis, isoprenaline versus ZAG (epididymal adipocytes): no significant difference

CCc1ccccc1OC[C@@H](O)CN[C@H]1CCCc2ccccc21 [SR59230A]
combination of ZAG and SR59230A on glucose induced protein degradation (murine myotubes; 10 and 25 mM glucose): additive rather than antagonistic | protein degradation induced by 10 and 25 mM glucose (murine myotubes; myotubes): attenuated | protein synthesis (murine myotubes; with 10 mM glucose): causes an increase in the depression of protein synthesis

COc1cccc(-c2cc(=O)c3ccccc3o2)c1N [PD98059]
effect on ZAG-induced expression of HSL in ep adipocytes (adipocytes; PD98059 10 μM, adipocytes incubated with ZAG for 3 h): attenuated the increase in expression of HSL
